Structures can show the parent of a compound that is named as a salt.
Key:
[1] = test system: Escherichia coli; assay: minimum inhibitory concentration, antibacterial spectrum (Table I); assay type: cell-based; settings: 32 P.P.M.
Protocol: (§1) The compounds listed in Table I below were tested for their antibacterial spectrum by the method of:
(§2) Silverblatt, F. and M. Turck, 1969. Antimicrobial Agents and Chemothreapy; 1968, p. 279-285.
(§3) Wallace, J. F., E. Atlas, D. M. Bear, N. K. Brown, H. Clark and M. Turk, 1971. Antimicrobial Agents and Chemotherapy; 1970, p. 223-266.

[2] = test system: Pseudomonas aeruginosa; assay: as above; assay type: cell-based; settings: 32 P.P.M.
Protocol: as §1, §2, §3

[3] = test system: Staphylococcus aureus; assay: as above; assay type: cell-based; settings: 32 P.P.M.
Protocol: as §1, §2, §3

[4] = test system: Candida albicans; assay: minimum inhibitory concentration, antimicrobial spectrum (Table I); assay type: cell-based; settings: 32 P.P.M.
Protocol: as §1, §2, §3

[5] = test system: Diplococcus pneumoniae; assay: minimum inhibitory concentration / in vitro spectrum of activity; assay type: cell-based; settings: Streptococcus pneumoniae, footnote of Table I
Protocol: as §1, §2, §3

[6] = test system: Klebsiella pneumonia; assay: as above; assay type: cell-based; settings: Klebsiella pneumoniae, footnote of Table I
Protocol: as §1, §2, §3

[7] = test system: Salmonella typhosa; assay: as above; assay type: cell-based; settings: Salmonella enterica, read-out: minimum inhibitory concentration (MIC)
Protocol: as §1, §2, §3

[8] = test system: Streptococcus pyogenes; assay: as above; assay type: cell-based; settings: footnote of Table I
Protocol: as §1, §2, §3

[9] = LD50 upon oral administration to mice; settings: mouse, in vivo

MIC [1]	MIC [2]	MIC [3]	SMILES	also measured
1 µg/mL	8 µg/mL	1 µg/mL	Cc1ccc2nc(NC(=N)NCCCCCCNC(=N)Nc3nc4ccc(C)cc4[nH]3)[nH]c2c1 [Compound 1081, N'-N"-bis-[2-(6-methyl-benzimidazole)]-2,9-diazadecane diimidamide dihydrochloride dihydrate]	MIC [4]: 8 µg/mL
8 µg/mL	–	8 µg/mL	N=C(NCCCCCNC(=N)Nc1nc2ccccc2[nH]1)Nc1nc2ccccc2[nH]1 [Compound 1079, N'-N"-bis-[2-benzimidazole]-2,8-diazanonane diimidamide dihydrochloride dihydrate]	–
–	–	5 µg/mL	N=C(NCCNC(=N)Nc1nc2ccc(Cl)cc2[nH]1)Nc1nc2ccc(Cl)cc2[nH]1 [Compound 1105, N'-N"-bis-[2-(6-chlorobenzimidazole)]-2,5-diazahexanediimidamide dihydrochloride sesquihydrate]	–
2 µg/mL	–	2 µg/mL	N=C(NCCCCCNC(=N)Nc1nc2ccc(Cl)cc2[nH]1)Nc1nc2ccc(Cl)cc2[nH]1 [Compound 1075, N'-N"-bis-[2-(6-chlorobenzimidazole)]-2,8,diazanonane diimidamide dihydrochloride hydrate]	–
1 µg/mL	–	1 µg/mL	N=C(NCCCCCCCCNC(=N)Nc1nc2ccccc2[nH]1)Nc1nc2ccccc2[nH]1 [Compound 1080, N'-N"-bis-[2-benzimidazole]-2,11-diazadodecane diimidamide dihydrochloride dihydrate]	–

Further lines, the molecule ahead of its results:

SMILES	MIC [1]	MIC [2]	MIC [3]	also measured
Cc1ccc2nc(NC(=N)NCCNC(=N)Nc3nc4ccc(C)cc4[nH]3)[nH]c2c1 [Compound 1072, N'-N"-bis-[2-(6-methylbenzimidazole)]-2,5-diazahexane diimidamide dihydrochloride monohydrate]	4 µg/mL	16 µg/mL	16 µg/mL	–
N=C(NCCCCCCNC(=N)Nc1nc2cc(Cl)c(S(N)(=O)=O)cc2[nH]1)Nc1nc2cc(Cl)c(S(N)(=O)=O)cc2[nH]1 [Compound 1045, N'-N"-bis-[2-(5'-chloro-6'-sulfamylbenzimidazole)]-2,9-diazadecane diimidamide dihydrochloride]	8 µg/mL	–	–	–
Cc1ccc2nc(NC(=N)NCCCCCNC(=N)Nc3nc4ccc(C)cc4[nH]3)[nH]c2c1 [Compound 1074, N'-N"-bis-[2-(6-methylbenzimidazole)]-2,8-diazanonane diimidamide dihydrochloride hemipentahydrate]	4 µg/mL	8 µg/mL	8 µg/mL	MIC [4]: 16 µg/mL
N=C(NCCCCCCCNC(=N)Nc1nc2ccccc2[nH]1)Nc1nc2ccccc2[nH]1 [Compound 1046, N'-N"-bis-[2-benzimidazole]-2,10-diazaundecane diimidamide dihydrochloride]	8 µg/mL	–	8 µg/mL	MIC [4]: 16 µg/mL
N=C(NCCNC(=N)Nc1nc2ccccc2[nH]1)Nc1nc2ccccc2[nH]1 [Compound 1069, N'-N"-bis[2-benzimidazole]-2,5-diazahexane diimidamide dihydrochloride]	32 µg/mL	–	–	–
N=C(NCCCCCCNC(=N)Nc1nc2ccccc2[nH]1)Nc1nc2ccccc2[nH]1 [Compound 1024, N'-N"-bis-[2-benzimidazole]-2,9-diazadecane diimidamide dihydrochloride]	4 µg/mL	16 µg/mL	4 µg/mL	MIC [5]: 2 µg/mL; MIC [6]: 500 µg/mL; MIC [7]: 4 µg/mL; MIC [8]: 1 µg/mL; LD50 [9]: 4000 mg/kg
